The results in this text go back to patent publication US11203594B2, “Anti-proliferative agents for treating PAH” (Pfizer Inc., priority 2019, dated 2021).

Holding throughout (format): biochemical
The target of one experiment is CDK6/Cyclin D1 (Homo sapiens (Human), UniProt Q00534). Nature of the experiment: CDK6/Cyclin D1 Mobility Shift Assay (MSA), Ki by Morrison equation. The following applies: geometric mean, tested in CDK6/D1 Ki assay using MSA. The text has this:
CDK6/Cyclin D1 Mobility Shift Assay (MSA)
The purpose of the CDK6/Cyclin D1 assay is to evaluate the inhibition (% inhibition, Kiapp and Ki values) in the presence of small molecule inhibitors by using a fluorescence based microfluidic mobility shift assay. CDK6/Cyclin D1 catalyzes the production of ADP from ATP that accompanies the phosphoryl transfer to the substrate peptide 5-FAM-Dyrktide The mobility shift assay electrophoretically separates the fluorescently labeled peptides (substrate and phosphorylated product) following the kinase reaction. Both substrate and product are measured and the ratio of these values is used to generate % conversion of substrate to product by the LabChip EZ Reader. Typical reaction solutions contained 2% DMSO (±inhibitor), 2% glycerol, 10 mM MgCl2, 1 mM DTT, 3.5 mM ATP, 0.005% Tween 20 (TW-20), 3 μM 5-FAM-Dyrktide, 4 nM activated CDK6/Cyclin D1 in 40 mM HEPES buffer at pH 7.5. […]
For all the CDK4 and CDK6 assays the Ki constant for compounds were calculated for each enzyme using the Morrison equation. Fractional activity was measured at different compound concentrations, [I] and the data fit to the Morrison equation where [E] is the enzyme concentration, [S] is the ATP concentration, and Kn^App is the apparent Km for ATP for each enzyme under each assay format. […]

In a further experiment the target is CDK4/Cyclin D1 (Homo sapiens (Human), UniProt P11802). The experiment can be described thus: CDK4/Cyclin D1 CHEF assay (Chelation-Enhanced Fluorescence), Ki by Morrison equation. The following applies: geometric mean; tested in CHEF Assay; read-out: CDK4/Cyclin D1 GMean Ki. From the text: (§1) In Vitro Purified Enzyme Assays to Determine Potency for CDKs
Sequence of CDK4/Cyclin D1 (P11802 whole entry): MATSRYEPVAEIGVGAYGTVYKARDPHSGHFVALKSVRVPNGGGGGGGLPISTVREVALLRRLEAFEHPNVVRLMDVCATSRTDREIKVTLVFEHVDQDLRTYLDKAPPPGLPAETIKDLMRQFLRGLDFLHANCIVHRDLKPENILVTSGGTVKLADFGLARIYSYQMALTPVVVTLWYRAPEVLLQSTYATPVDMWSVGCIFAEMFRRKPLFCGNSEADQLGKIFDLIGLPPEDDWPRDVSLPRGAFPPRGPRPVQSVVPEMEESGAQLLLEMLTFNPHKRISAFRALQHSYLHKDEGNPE
Sequence of CDK4/Cyclin D1 (P24385 whole entry partner): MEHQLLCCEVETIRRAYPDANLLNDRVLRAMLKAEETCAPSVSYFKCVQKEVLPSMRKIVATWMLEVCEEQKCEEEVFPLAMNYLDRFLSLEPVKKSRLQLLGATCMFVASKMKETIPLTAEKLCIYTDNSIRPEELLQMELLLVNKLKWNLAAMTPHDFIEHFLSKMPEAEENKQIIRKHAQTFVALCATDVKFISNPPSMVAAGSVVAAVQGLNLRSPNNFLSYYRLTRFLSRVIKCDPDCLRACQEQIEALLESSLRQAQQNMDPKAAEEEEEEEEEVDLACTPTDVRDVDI
(§2) CDK4/Cyclin D1 and CDK6/Cylcin D3 CHEF Assay
(§3) The Chelation-Enhanced Fluorescence (CHEF) monitors the phosphorylation state in real time where the level of fluorescence is directly proportional to the amount of phosphorylated substrate. CHEF exploits a synthetic α-amino acid with a side chain bearing an 8-hydroxyquinoline derivative (sulfonamido-oxine, Sox) which, upon coordination to Mg(II), relays information on the phosphorylation state of a proximal serine, threonine or tyrosine residue in peptide-based kinase substrates. Phosphorylation of a specific peptide (Catalog # AQT0258) from AssayQuant Technologies results in an increase in fluorescence at the excitation and emission wavelengths of 360 nm Ex/485 nm Em.
(§4) Examples along with DMSO (negative) and Palbociclib (positive) controls were added to 384-well plates at 100-fold their final concentrations followed by the addition of 10 nM CDK4/Cyclin D1 (LJIC-2007F1) or 10 nM CDK6/Cyclin D3 (LJIC-2009H2) for a 20 minute pre-incubation in assay buffer containing 40 mM HEPES, 1 mM Dithiothreito (DTT, 10 mM MgCl2, 1% Glycerol, 0.1% BSA. Enzyme reactions were initiated by the addition of AssayQuant Technologies peptide and ATP substrates (10 μM CHEF peptide (Catalog # AQT0258), 2 mM ATP) and allowed to proceed for 2 hours followed by fluorescence read of the reaction. Ki determinations were made from a plot of the fractional velocity as a function of inhibitor concentration fit to the Morrison equation with the enzyme concentration as a variable.
(§5) For all the CDK4 and CDK6 assays the Ki constant for compounds were calculated for each enzyme using the Morrison equation. Fractional activity was measured at different compound concentrations, [I] and the data fit to the Morrison equation where [E] is the enzyme concentration, [S] is the ATP concentration, and Kn^App is the apparent Km for ATP for each enzyme under each assay format. With the Ki calculations dependent on the assay conditions for each assay format the resulting Ki becomes assay independent with a strong one to one correlation of Ki values for compounds tested in both assay formats.
(§6) In Table 2, assay data are presented to two (2) significant figures as the geometric mean (Ki) based on the number of replicates listed (Number). A cell having NA means there was no data for that Example in the indicated assay.

In a further experiment the target is CDK6/Cyclin D3 (Homo sapiens (Human), UniProt Q00534). The experiment can be described thus: CDK6/Cyclin D3 CHEF assay (Chelation-Enhanced Fluorescence), Ki by Morrison equation. Particulars: geometric mean; tested in CHEF Assay; read-out: CDK6/Cyclin D3: GMean Ki.
Sequence of CDK6/Cyclin D3 (Q00534 whole entry): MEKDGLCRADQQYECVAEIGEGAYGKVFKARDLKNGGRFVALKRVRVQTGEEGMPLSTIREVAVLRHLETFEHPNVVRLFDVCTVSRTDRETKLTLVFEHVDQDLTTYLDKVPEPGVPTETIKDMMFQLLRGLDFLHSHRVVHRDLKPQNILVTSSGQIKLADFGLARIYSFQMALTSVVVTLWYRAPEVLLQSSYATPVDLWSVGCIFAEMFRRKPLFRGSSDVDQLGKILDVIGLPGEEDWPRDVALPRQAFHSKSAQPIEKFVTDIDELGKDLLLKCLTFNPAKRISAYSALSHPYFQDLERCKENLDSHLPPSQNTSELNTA
Sequence of CDK6/Cyclin D3 (P30281 whole entry partner): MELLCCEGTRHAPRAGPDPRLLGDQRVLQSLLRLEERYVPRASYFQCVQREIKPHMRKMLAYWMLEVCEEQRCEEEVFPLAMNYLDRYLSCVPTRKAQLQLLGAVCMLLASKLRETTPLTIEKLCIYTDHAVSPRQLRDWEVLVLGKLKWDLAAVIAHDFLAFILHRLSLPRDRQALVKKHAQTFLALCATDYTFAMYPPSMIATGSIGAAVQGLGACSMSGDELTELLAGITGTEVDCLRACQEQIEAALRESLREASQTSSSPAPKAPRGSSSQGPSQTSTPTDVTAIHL
Source text: as §1, §2, §3, §4, §5, §6

Bounds are passed on as bounds.

Sequence of CDK6/Cyclin D1 (Q00534 whole entry): as the sequence (Q00534 whole entry) above
Sequence of CDK6/Cyclin D1 (P24385 whole entry partner): as the sequence (P24385 whole entry partner) above

`CC(=O)c1c(C)c2cnc(N[C@@H]3CCOC[C@H]3O)nc2n([C@H]2CCC[C@]2(C)F)c1=O` (single isomer, unassigned) [Example 22]: the Ki at CDK6/Cyclin D1 (read-out: CDK6/Cyclin D3: GMean Ki (nM) (footnote c: CDK6/D1 Ki)) amounted to 2.8 nM.
Regarding `CC(=O)c1c(C)c2cnc(N[C@@H]3CCOC[C@H]3O)nc2n([C@@H]2CCC[C@]2(C)F)c1=O` (mixture of isomers) [Example 17, 6-Acetyl-8-[(1R,2S)-2-fluoro-2-methylcyclopentyl]-2-{[(3S,4R)-3-hydroxytetrahydro-2H-pyran-4-yl]amino}-5-methylpyrido[2,3-d]pyrimidin-7(8H)-one and 6-Acetyl-8-[(1S,2R)-2-fluoro-2-methylcyclopentyl]-2-{[(3S,4R)-3-hydroxytetrahydro-2H-pyran-4-yl]amino}-5-methylpyrido[2,3-d]pyrimidin-7(8H)-one], on CDK6/Cyclin D1, the “CDK6/Cyclin D3: GMean Ki (nM) (footnote c: CDK6/D1 Ki)” value is recorded as 10.5^c nM.
For `CC(=O)c1c(C)c2cnc(N[C@@H]3CCOC[C@H]3O)nc2n([C@H]2CCC[C@]2(C)O)c1=O` (mixture of isomers) [Example 7, 6-Acetyl-8-[(1S,2S)-2-hydroxy-2-methylcyclopentyl]-2-{[(3S,4R)-3-hydroxytetrahydro-2H-pyran-4-yl]amino}-5-methylpyrido[2,3-d]pyrimidin-7(8H)-one and 6-Acetyl-8-[(1R,2R)-2-hydroxy-2-methylcyclopentyl]-2-{[(3S,4R)-3-hydroxytetrahydro-2H-pyran-4-yl]amino}-5-methylpyrido[2,3-d]pyrimidin-7(8H)-one], the Ki at CDK4/Cyclin D1 came to 7.2 nM; at CDK6/Cyclin D3, 7.7 nM.
`CC(=O)c1c(C)c2cnc(N[C@@H]3CCOC[C@H]3O)nc2n([C@@H]2CCNC2)c1=O` [Example 27]: the figures for the Ki on CDK4/Cyclin D1 and on CDK6/Cyclin D3 were 9.9 nM and 25 nM, respectively.
`CC(=O)c1c(C)c2cnc(N[C@@H]3CCOC(C)(C)[C@H]3O)nc2n(C2CCCC2)c1=O` (mixture of isomers) [Example 9, 6-Acetyl-8-cyclopentyl-2-{[(3S,4R)-3-hydroxy-2,2-dimethyltetrahydro-2H-pyran-4-yl]amino}-5-methylpyrido[2,3-d]pyrimidin-7(8H)-one and 6-Acetyl-8-cyclopentyl-2-{[(3R,4S)-3-hydroxy-2,2-dimethyltetrahydro-2H-pyran-4-yl]amino}-5-methylpyrido[2,3-d]pyrimidin-7(8H)-one]: the Ki on CDK4/Cyclin D1 is 2.7 nM; at CDK6/Cyclin D3 it was 6.7 nM.
Regarding `CC(=O)c1c(C)c2cnc(N[C@@H]3CCOC[C@H]3O)nc2n(C2CC3(CNC3)C2)c1=O` [Example 3, 6-Acetyl-8-(2-azaspiro[3.3]heptan-6-yl)-2-{[(3S,4R)-3-hydroxytetrahydro-2H-pyran-4-yl]amino}-5-methylpyrido[2,3-d]pyrimidin-7(8H)-one], the Ki came out at 1.1 nM on CDK4/Cyclin D1 and 2.1 nM on CDK6/Cyclin D3.
For `CC(=O)c1c(C)c2cnc(N[C@@H]3CCOC[C@H]3O)nc2n([C@@H]2CCC[C@@H]2C)c1=O` [Example 4, 6-Acetyl-2-{[(3S,4R)-3-hydroxytetrahydro-2H-pyran-4-yl]amino}-5-methyl-8-[(1R,2S)-2-methylcyclopentyl]pyrido[2,3-d]pyrimidin-7(8H)-one], in that order: 1.6 nM and 2.1 nM.
For `CC(=O)c1c(C)c2cnc(N[C@@H]3CCOC[C@H]3O)cc2n([C@H]2CCOC2)c1=O` [Example 11, 3-Acetyl-7-{[(3S,4R)-3-hydroxytetrahydro-2H-pyran-4-yl]amino}-4-methyl-1-[(3S)-tetrahydrofuran-3-yl]-1,6-naphthyridin-2(1H)-one], in that order: 34 nM and 16 nM.
On the same counts, the results for `CC(=O)c1c(C)c2cnc(N[C@H]3CCOC[C@@H]3O)nc2n(C2CCCC2)c1=O` [Example 30, 6-acetyl-8-cyclopentyl-2-{[(3R,4S)-3-hydroxytetrahydro-2H-pyran-4-yl]amino}-5-methylpyrido[2,3-d]pyrimidin-7(8H)-one] are 430 nM and > 570 nM.
`CC(=O)c1c(C)c2cnc(N[C@H]3CCOC[C@@H]3O)cc2n(C2CCCC2)c1=O` [Example 33, 3-acetyl-1-cyclopentyl-7-{[(3R,4S)-3-hydroxytetrahydro-2H-pyran-4-yl]amino}-4-methyl-1,6-naphthyridin-2(1H)-one]: the Ki came out at 62 nM at CDK4/Cyclin D1 and 130 nM on CDK6/Cyclin D3.
Regarding `CC(=O)c1c(C)c2cnc(N[C@@H]3CCOC[C@H]3O)nc2n([C@H]2CCC[C@]2(C)F)c1=O` (single isomer, unassigned) [Example 23], the Ki at CDK4/Cyclin D1 is > 1100 nM; on CDK6/Cyclin D3, > 560 nM.
On the same counts, the results for `COCCN1CC2(CC(n3c(=O)c(C(C)=O)c(C)c4cnc(N[C@@H]5CCOC[C@H]5O)nc43)C2)C1` [Example 28] are 10 nM and 36 nM.
For `CC(=O)c1c(C)c2cnc(N[C@@H]3CCOC[C@H]3O)cc2n(C2CCC(O)C2)c1=O` (single isomer, unassigned) [Example 14], in that order: 0.9 nM and 2.6 nM.
On the same counts, the results for `CC(=O)c1c(C)c2cnc(N[C@@H]3CCOC[C@H]3O)nc2n([C@@H]2CC[C@@H]3C[C@@H]32)c1=O` (mixture of isomers) [Example 13, 6-Acetyl-8-[(1S,2R,5R)-bicyclo[3.1.0]hexan-2-yl]-2-{[(3S,4R)-3-hydroxytetrahydro-2H-pyran-4-yl]amino}-5-methylpyrido[2,3-d]pyrimidin-7(8H)-one and 6-Acetyl-8-[(1R,2S,5S)-bicyclo[3.1.0]hexan-2-yl]-2-{[(3S,4R)-3-hydroxytetrahydro-2H-pyran-4-yl]amino}-5-methylpyrido[2,3-d]pyrimidin-7(8H)-one] are 2.1 nM and 3.3 nM.
`CC(=O)c1c(C)c2cnc(N[C@@H]3CCOC[C@H]3O)nc2n(C2CCC2)c1=O` [Example 1, 6-Acetyl-8-cyclobutyl-2-{[(3S,4R)-3-hydroxytetrahydro-2H-pyran-4-yl]amino}-5-methylpyrido[2,3-d]pyrimidin-7(8H)-one]: the Ki turned out to be 1.8 nM on CDK4/Cyclin D1 and 2 nM on CDK6/Cyclin D3.
For `CC(=O)c1c(C)c2cnc(N[C@@H]3CCOC[C@H]3O)cc2n(C2CCC(O)C2)c1=O` (single isomer, unassigned) [Example 15], in that order: 3.8 nM and 7.7 nM.
